Assay results published in patent US20160299149A1, “ASSAYS AND METHODS FOR CELL PROLIFERATION-TARGETED TREATMENT THERAPIES” (University of Central Florida Research Foundation, Inc., priority 2015, published 2016).
Where two headings read alike, the source gives them in different places.

Tests used:
L3.6pl cells [1] = test: Assay 2 with GW5074 PTI in L3.6pl cells; format: cell-based, human; details: 500 cells/well, 48 h at 37° C., 250 μM aminoguanidine
Protocol: (§1) DFMO was dosed to give 50% relative viability versus an untreated control, i.e. DFMO is dosed at its IC50 value. Exogenous spermidine (Spd, 1 μM) is added to the DFMO treated cells and provided significant rescue of these cells to >80% viability depending upon the cell line. A successful PTI was able to block the entry of the spermidine rescuing agent into DFMO treated cells and result in a cell viability near the DFMO control (i.e. 50% viability). The inventors identified the following cell viabilities: DFMO only (50%), Spd only (100%), PTI (>90%), DFMO+Spd (>80%), DFMO+Spd+PTI (50%). The PTI provides a dose dependent lowering of cell viability in the presence of DFMO and a rescuing dose of spermidine. […] Identifying cells that respond to exogenous spermidine allow this assay to be possible and the c-myc and ATP13A3 biomarkers help predict these outcomes as well as the Vmax measurements for ^3H Spd import.

L3.6pl pancreatic tumor = test: Human L3.6pl pancreatic tumor in nude mice, combination with 1% DFMO; format: in vivo; details: GW5074 1 mg/kg i.p. 5 days per week for 2 weeks, trimer44NMe equimolar (1.8 mg/kg), 1% DFMO in drinking water
Protocol: The extension of these findings is that cells which have high c-myc and ATP13A3 expression will be sensitive to the therapy described herein. These therapies were evaluated in vivo.
The first set of experiments was in nude mice (immune compromised) using human L3.6pl pancreatic cancer cells which have high ATP13A3 and high c-myc expression and high Vmax. […] Note TTI′ in FIGS. 12 and 13 refer to the polyamine-based trimer44NMe PTI compound.
0.5×10^6 L3.6pl tumor cells were injected into the pancreas of nude mice and allowed to grow for 1 week. 1% DFMO was administered in the drinking water (changed weekly) for 2 weeks. […] Mice were collected and pancreatic tissue/tumor, with spleen attached, was weighed.

melanoma cell lines = test: NCI 60-cancer cell screen; format: cell-based; details: for sensitivity of MALME-3M in NCI 60-cancer cell screen: MALME-3M (low Cav-1 and high Cav-2)
From the text: (§2) Graphical bars extending to the right of the 0 growth percent line indicates growth inhibition by compound A of those specific cell lines.

MALME-3M cells = test: Cytotoxicity IC50 in metastatic melanoma cells; format: cell-based
From the text: as §2

MALME-3 cells = test: Cytotoxicity IC50 in matched control cells; format: cell-based; details: in the presence of aminoguanidine (1 mM)
CHO cells = test: PTS targeting: cytotoxicity IC50 in PTS-active cells; format: cell-based
From the text: (§3) Table 1 compares unmethylated Compound A (containing primary amine termini), and N-methylated Compound A (containing N-methyl termini). […] This is due to the presence of the terminal N-methyl groups in A.

CHO-MG* cells = test: PTS targeting: cytotoxicity IC50 in PTS-deficient cells; format: cell-based
From the text: as §3

amine oxidases = test: Metabolic stability to amine oxidases; format: in vitro ADME, calf; details: unmethylated compound judged without the protective aminoguanidine (AG)
From the text: as §3

[2] = tested on: MALME-3M cells and MALME-3 control cells; test: Spermidine competition / percent viability with compound A; format: cell-based
Protocol: Aminoguanidine (AG) at 1 mM was determined to be non-toxic and was incubated with cells for 24 h prior to compound addition. Control represents the untreated cells. All experiments were performed in triplicate. Spermidine (Spd, 100 μM) was non-toxic to both cell lines. […] Compound A is a valid polyamine transport probe.

DFMO-treated cells = test: Polyamine transport inhibitor assay 2: PTI blocks uptake of rescuing spermidine into DFMO-treated cells; format: cell-based
Protocol: FIG. 6A is a diagram showing an assay wherein the uptake of rescuing dose of spermidine into DFMO-treated cells is blocked by a PTI (GW 5074).
as §1

[3] = tested on: L3.6pl, Panc1, CHO and PanO2 cells; test: Cell line sensitivity to DFMO and spermidine rescue challenge; format: cell-based
L3.6pl cells [4] = test: DFMO 48 h IC50 in L3.6pl cells; format: cell-based, human
Protocol: FIG. 19B provides a graphical illustration of the effect of scrambled siRNA vs. ATP13A3 siRNA on relative L3.6pl cell viability % when challenged with a 48 h IC50 dose of DFMO (8 mM) and a rescuing dose of Spd (1 μM).
FIG. 20B provides a graphical illustration of the effect of scrambled siRNA vs. ATP13A3 siRNA on relative L3.6pl cell viability % when challenged with a 48 h IC50 dose of DFMO (8 mM) and a rescuing dose of Spd (1 μM).

[5] = tested on: BxPC-3 pancreatic cancer cells; test: Western blot of ATP13A3 and Cav-1 protein levels with DFMO; format: cell-based, human; details: 72 h incubation at 37° C.
Protocol: (§4) FIGS. 9A-B provide graphical illustrations of the modulation of ATP13A3 and Cav-1, respectively, by DFMO and DFMO+Spermidine in L3.6pl human pancreatic cancer cells after 72 h incubation at 37° C. In FIG. 9A ATP13A3 protein levels after 72 h incubation at 37° C. are shown in L3.6pl (top) and Bx-PC3 (bottom) pancreatic cancer cells in the presence of DFMO or DFMO+Spd as analyzed by Western blot. Expression was normalized using β-actin levels. […] Note an increase in Cav-1 levels would stabilize caveolae at the cell surface and reduce the uptake of polyamines via a caveolin dependent pathway. A decrease in Cav-1 levels would increase polyamine import.

[6] = tested on: L3.6pl pancreatic cancer cells; test: as above; format: cell-based, human; details: 72 h incubation at 37° C.
Protocol: as §4

PanO2 derived tumors = test: Histology (Ki67, cleaved caspase) of PanO2 derived tumors; format: in vivo; details: PanO2 derived tumors in C57Bl/6 mice
From the text: FIG. 14 illustrates histological stained images of Ki67, a proliferation marker, and cleaved caspase in the presence of DFMO or DFMO+ the trimer44NMe PTI

[7] = MALME-3M, 96 h, read-out: 96 h IC50
[8] = in the presence of aminoguanidine (1 mM)
[9] = with aminoguanidine (AG), read-out: CHO IC50 w/ AG
[10] = without aminoguanidine (AG), read-out: CHO IC50 w/o AG
[11] = with aminoguanidine (AG), read-out: CHO-MG* IC50 w/ AG
[12] = without aminoguanidine (AG), read-out: CHO-MG* IC50 w/o AG

O=C1Nc2ccc(I)cc2/C1=C/c1cc(Br)c(O)c(Br)c1 [GW5074]
effectiveness against L3.6pl cells (L3.6pl cells [1]; in combination with DFMO): effective
reduction in tumor size (L3.6pl pancreatic tumor): statistically significant reduction

CNCCCCNCCCCNCc1c2ccccc2c(CNCCCCNCCCCNC)c2ccccc12 [Compound B]
sensitivity of MALME-3M in NCI 60-cancer cell screen (melanoma cell lines; 10 μM): most sensitive cell line
IC50 (MALME-3M cells; [7]): 0.062 µM

NCCCCNCCCCNCc1ccc(CNCCCCNCCCCN)c2ccccc12 [Compound A w/o Me]
IC50 ratio (MALME-3/MALME-3M) (MALME-3M cells; [8]): 71
IC50 (MALME-3M cells; in the presence of aminoguanidine (1 mM), read-out: MALME-3M IC50): 0.018 µM
IC50 (MALME-3 cells): 1.21 µM
IC50 ratio w/ AG (CHO-MG*/CHO) (CHO cells; with aminoguanidine (AG)): >4545
IC50 (CHO cells; [9]): 0.022 µM
IC50 ratio w/o AG (CHO-MG*/CHO) (CHO cells; without aminoguanidine (AG)): 9.5
IC50 (CHO cells; [10]): 5.5 µM
IC50 (CHO-MG* cells; [11]): > 100 µM
IC50 (CHO-MG* cells; [12]): 52.1 µM
metabolic stability to amine oxidases (amine oxidases): less selective and less metabolically stable

CNCCCCNCCCCNCc1ccc(CNCCCCNCCCCNC)c2ccccc12 [Compound A]
sensitivity of MALME-3M in NCI 60-cancer cell screen (melanoma cell lines; 10 μM): most sensitive cell line
growth of cancer cell lines in NCI 60-cancer cell screen (melanoma cell lines; 10 μM, MALME-3M, M14, MDA-MB-435, SK-MEL2, SK-MEL-28, SK-MEL-5, UACC-257, UACC-62): decreased growth of cancer cell lines
sensitivity of LOX IMVI melanoma cell line (melanoma cell lines; LOX IMVI (high Cav-1, low Cav-2)): most resistant melanoma cell line
IC50 (MALME-3M cells; [7]): 0.014 µM
IC50 ratio (MALME-3/MALME-3M) (MALME-3M cells; [8]): 59
IC50 (MALME-3 cells): 0.82 µM
CHO-MG*/CHO IC50 ratio (selectivity for CHO cells with active PTS) (CHO cells; summary bound, also when AG is removed): > 2200
IC50 ratio w/ AG (CHO-MG*/CHO) (CHO cells; with aminoguanidine (AG)): >2272
IC50 (CHO cells; [9]): 0.044 µM
IC50 ratio w/o AG (CHO-MG*/CHO) (CHO cells; without aminoguanidine (AG)): >2564
IC50 (CHO cells; [10]): 0.039 µM
IC50 (CHO-MG* cells; [11]): > 100 µM
IC50 (CHO-MG* cells; [12]): > 100 µM
competition with spermidine for cell entry (percent viability) ([2]; 96 h at 37 degrees Celsius, 0.02 μM (MALME-3M cells), 0.8 μM (MALME-3 control cells)): competes with Spd for cell entry
metabolic stability to amine oxidases (amine oxidases): metabolically stable

difluoromethylornithine [DFMO]
cell viability (DFMO-treated cells; DFMO dosed at its IC50, Spd 1 μM, PTI not above its IC10, relative to untreated control): 50%
effectiveness against L3.6pl cells (L3.6pl cells [1]; DFMO alone): effective
IC50 [3]: < 5000 µM
IC50 (L3.6pl cells [4]): 8000 µM
relative ATP13A3 expression (normalized using β-actin) ([5]; Bx-PC3, 48 h IC50 DFMO dose (e.g., 8 mM)): significant increase
levels of Cav-1 ([5]; BxPC-3, in the presence of DFMO): not dramatically changed
relative ATP13A3 expression (normalized using β-actin) ([6]; 48 h IC50 DFMO dose (e.g., 8 mM)): significant increase
levels of Cav-1 ([6]; in the presence of DFMO): not dramatically changed
proliferation (Ki67 histological stain) (PanO2 derived tumors): reduced proliferation

N=C(N)NN [Aminoguanidine, aminoguanidine]
toxicity to cells ([2]; 1 mM, incubated with cells for 24 h prior to compound addition): non-toxic

CNCCCCNCCCCNCc1cc(CNCCCCNCCCCNC)cc(CNCCCCNCCCCNC)c1 [Compound 6b]
effectiveness as PTI agent in vitro (DFMO-treated cells; in vitro): effective
proliferation (Ki67 histological stain) (PanO2 derived tumors): reduced proliferation
cleaved caspase staining (apoptosis) (PanO2 derived tumors; PTI by itself): apoptosis is occurring
metabolic stability to amine oxidases (amine oxidases): enhanced stability
